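Following 48 hours of exposure in 96-well plates, responses at five concentrations were used to interpolate endpoints linearly. Abbreviation: GI50, concentration required for 50% inhibition of growth.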 Calls of active or inactive are those of the source. No stated cut-off is given here; in the data, active = GI50 up to about 1.1 µM and inactive = higher.
Legend:
Experiment in all cases: growth of human tumour cells (NCI), 48 h
[1] = tested on: U-251
[2] = tested on: DU-145
[3] = tested on: SF-268
[4] = tested on: CAKI-1
[5] = tested on: HT-29
[6] = tested on: UO-31
[7] = tested on: NCI/ADR-RES
[8] = tested on: 786-0
[9] = tested on: Hs-578T
[10] = tested on: KM12
[11] = tested on: UACC-62
[12] = tested on: M14
[13] = tested on: UACC-257
[14] = tested on: COLO 205
[15] = tested on: SF-295
[16] = tested on: SF-539
[17] = tested on: SNB-75
[18] = tested on: IGROV-1
[19] = tested on: HL-60

Measured: GI50

CCOc1ccc2c(c1)/C(=C(\C(Cl)=C(Cl)Cl)[N+](=O)[O-])N2
inactive: [1] > 100 µM | [2] > 100 µM | [3] 66.2 µM | [4] > 100 µM | [5] > 100 µM | [6] > 100 µM | [7] > 100 µM | [8] > 100 µM | [9] > 100 µM | [10] > 100 µM | [11] > 100 µM | [12] > 100 µM | [13] > 100 µM | [14] > 100 µM | [15] > 100 µM | [16] > 100 µM | [17] > 100 µM

COc1ccc(CN2C[C@H]3[C@@H](CC(=O)O[C@H]3C)CC2=O)cc1
inactive: [1] > 100 µM | [2] > 100 µM | [3] > 100 µM | [4] > 100 µM | [5] > 100 µM | [6] > 100 µM | [7] > 100 µM | [8] > 100 µM | [9] > 100 µM | [10] > 100 µM | [11] > 100 µM | [12] > 100 µM | [13] > 100 µM | [18] > 100 µM | [14] > 100 µM | [15] > 100 µM | [17] > 100 µM

Cc1ccc(S(=O)(=O)Nn2c(-c3ccccc3)c(C#N)c(-c3ccc([N+](=O)[O-])cc3)c(C#N)c2=O)cc1
inactive: [19] 39.4 µM | [1] > 100 µM | [3] > 100 µM | [4] > 100 µM | [5] > 100 µM | [7] > 100 µM | [8] > 100 µM | [9] 88.7 µM | [10] > 100 µM | [11] > 100 µM | [12] > 100 µM | [13] > 100 µM | [18] 70.8 µM | [14] > 100 µM | [15] > 100 µM | [16] > 100 µM | [17] 96.6 µM

Cc1cc(-c2no[n+]([O-])c2-c2cc(C)sc2S(C)(=O)=O)c(S(C)(=O)=O)s1
inactive: [1] > 100 µM | [3] > 100 µM | [4] > 100 µM | [5] > 100 µM | [6] > 100 µM | [7] > 100 µM | [8] > 100 µM | [9] > 100 µM | [10] > 100 µM | [12] > 100 µM | [18] > 100 µM | [14] > 100 µM | [15] > 100 µM | [16] > 100 µM | [17] > 100 µM

O=c1oc2ccc3ccccc3c2cc1-c1nnc(Nc2ccccc2)s1
inactive: [1] 7.59 µM | [2] 24.5 µM | [3] 61.8 µM | [4] 34 µM | [5] 41 µM | [6] 21.4 µM | [7] 52.5 µM | [8] 16 µM | [9] 65 µM | [10] 50.7 µM | [11] 23.8 µM | [12] 37.2 µM | [13] > 100 µM | [15] 65.3 µM

O=S(=O)(/N=C1/S/C(=N\c2ccccc2)N(c2ccccc2)/C1=N/S(=O)(=O)c1ccccc1)c1ccccc1
inactive: [19] 22.6 µM | [1] 22.3 µM | [5] 22.8 µM | [6] 15.8 µM | [8] 19 µM | [9] 29.6 µM | [10] 19.4 µM | [11] 17.2 µM | [12] 20.4 µM | [13] 19.1 µM | [18] 20.5 µM | [14] 26.9 µM | [17] 20.7 µM

CC(=O)N1C(C(=O)NN2CCOCC2)CSC1c1ccccc1 (centres undefined)
inactive: [1] > 100 µM | [2] > 100 µM | [3] > 100 µM | [4] > 100 µM | [5] > 100 µM | [6] > 100 µM | [7] > 100 µM | [8] > 100 µM | [9] > 100 µM | [10] > 100 µM | [11] > 100 µM | [12] > 100 µM | [13] > 100 µM | [18] > 100 µM | [14] > 100 µM | [15] > 100 µM | [16] > 100 µM | [17] > 100 µM

CN(Cc1cnc2nc(N)nc(N)c2n1)c1ccc(C(=O)NC(CCC(=O)NC(CC(P(=O)(O)O)P(=O)(O)O)C(=O)O)C(=O)O)cc1 (centres undefined)
inactive: [1] > 100 µM | [2] > 100 µM | [3] > 100 µM | [5] > 100 µM | [6] > 100 µM | [7] > 100 µM | [8] > 100 µM | [9] > 100 µM | [11] > 100 µM | [12] > 100 µM | [13] > 100 µM | [18] > 100 µM | [14] > 100 µM | [15] > 100 µM | [17] > 100 µM

COc1cc2c(cc1O)-c1c(cnn1-c1ccc([N+](=O)[O-])cc1)CCC2
inactive: [1] 11.7 µM | [2] 14.8 µM | [3] 8.95 µM | [4] 10.8 µM | [5] 16.4 µM | [7] 14.4 µM | [8] 12.9 µM | [9] 19.7 µM | [10] 12.6 µM | [11] 1.79 µM | [12] 16.6 µM | [13] 15.5 µM | [18] 4.78 µM | [14] 20.3 µM | [15] 10.9 µM | [16] 11.1 µM | [17] 22.9 µM

CSc1nc(NC(C)C)c2c(n1)Sc1nc3ccccc3n1C2O (centres undefined)
inactive: [1] 3.11 µM | [2] 3.18 µM | [3] 4.43 µM | [4] 82.4 µM | [5] 3.09 µM | [6] 5.71 µM | [7] 2.56 µM | [8] 4.11 µM | [9] 2.79 µM | [10] 3.01 µM | [12] 5.96 µM | [13] 40.9 µM | [18] 8.04 µM | [14] 1.65 µM | [15] 3.45 µM | [17] 4.61 µM

CC(N)(/C=C/c1ccccc1)C(=O)O (centres undefined)
inactive: [19] > 100 µM | [1] > 100 µM | [3] > 100 µM | [4] > 100 µM | [5] > 100 µM | [6] > 100 µM | [7] > 100 µM | [8] > 100 µM | [9] 67.3 µM | [10] > 100 µM | [11] > 100 µM | [12] > 100 µM | [13] > 100 µM | [18] > 100 µM | [14] > 100 µM | [15] > 100 µM | [16] > 100 µM

O=c1c2ccccc2nc(-c2ccccc2)n1NC(=S)Nc1cccc(Cl)c1
inactive: [19] > 100 µM | [1] 43.8 µM | [3] 43.7 µM | [4] > 100 µM | [5] > 100 µM | [6] 89.1 µM | [8] 68.1 µM | [10] > 100 µM | [11] 75 µM | [12] > 100 µM | [13] > 100 µM | [18] > 100 µM | [14] > 100 µM | [15] 64.4 µM | [16] 79.1 µM | [17] 28.4 µM

COC(=O)C1(C(=O)OC)N=C(C)OC1c1ccccn1 (centres undefined)
inactive: [19] > 100 µM | [1] > 100 µM | [2] > 100 µM | [4] > 100 µM | [6] > 100 µM | [7] > 100 µM | [8] > 100 µM | [10] > 100 µM | [11] > 100 µM | [12] > 100 µM | [13] > 100 µM | [18] > 100 µM | [14] > 100 µM | [15] > 100 µM | [17] > 100 µM

CC(C)[Si](OC1=C(C(=O)N(C)c2ccccc2Cl)CCCC1)(C(C)C)C(C)C
inactive: [1] 12.1 µM | [2] 10.6 µM | [3] 13.9 µM | [4] 14.3 µM | [5] 15.8 µM | [6] 14.5 µM | [7] 14.9 µM | [8] 17.1 µM | [9] 13.3 µM | [10] 14.2 µM | [11] 15.7 µM | [12] 16.1 µM | [13] 10.2 µM | [18] 16.9 µM | [14] 14.5 µM | [15] 7.52 µM | [16] 18 µM | [17] 14.3 µM

O=C(/C=N/c1ccccc1C(=O)[O-])c1cccs1.O=C(/C=N/c1ccccc1C(=O)[O-])c1cccs1.[Zn+2]
inactive: [19] 43.3 µM | [1] 17.5 µM | [3] 27.4 µM | [4] 91 µM | [5] > 100 µM | [6] > 100 µM | [8] > 100 µM | [10] > 100 µM | [11] 20.8 µM | [12] 36.4 µM | [13] 20.3 µM | [18] 31.9 µM | [14] > 100 µM | [15] 20.4 µM | [16] 42.5 µM | [17] 14.8 µM

Nc1n[n+](CC(=O)c2ccccc2)c2sc(-c3ccccc3)nn12
inactive: [1] > 100 µM | [2] > 100 µM | [3] 18.8 µM | [4] > 100 µM | [5] 55 µM | [6] 79.3 µM | [7] > 100 µM | [8] > 100 µM | [9] > 100 µM | [10] 46.1 µM | [11] 13.9 µM | [12] 61.2 µM | [13] > 100 µM | [18] > 100 µM | [14] > 100 µM | [15] 64.7 µM | [16] 74.8 µM | [17] > 100 µM

— ChEMBL document CHEMBL1201862, “PubChem BioAssay data set” (2004)
